Assay results published in patent US8853151B2, “Pro-drug complexes and related methods of use” (The Regents of the University of Michigan, priority 2009, dated 2014).
In brackets after ≈: the same amount, converted by molar mass. Like-named read-outs stand apart in the source and are kept apart here.

Tests used:
[1] = Solubility of SN-38 pro-drug complex in comparison with SN-38; type: physicochemical
Excerpt: The solubility of SN-38 pro-drug complex
[drawing 23] in comparison with SN-38 was investigated.

[2] = system: cervical carcinoma cell line KB; experiment: Effect on cell growth with or without recombinant human DT-Diaphorase (DTD) in the growth medium, KB cells; type: cell-based
Excerpt: (§1) The redox-coupled release of free SN38 from the SN-38 pro-drug complex
(§2) [drawing 24] using the enzyme DT-Diaphorase (DTD) was investigated. DTD is a cytosolic oxidoreductase which catalyzes the two-electron reduction of quinones using NADH or NADPH as electron donors (see, e.g., Phillips et al, Biochemical Pharmacology 68: 2107-2116 (2004); herein incorporated by reference in its entirety). As the DTD-induced reduction of quinones is known to take place even under normoxic conditions, the enzyme is used as a positive control for testing the release of drugs from quinone-linked drugs. Synthesized SN-38 pro-drug complex was incubated with recombinant human DTD (Sigma) added into the cell growth medium in the presence of different concentration of the SN-38 pro-drug complex. The effect of the drug on cell growth was determined in two different human cell lines, the cervical carcinoma cell line KB, and the breast cancer cell line SKBR3.

[3] = system: breast cancer cell line SKBR3; experiment: Effect on cell growth with or without recombinant human DT-Diaphorase (DTD) in the growth medium, SKBR3 cells; type: cell-based
Excerpt: as §1, §2

[4] = absence of DTD, up to 300 nM prodrug

| solubility ([1]; water) | Structure (SMILES) | solubility ([1]; in water, read-out: solubility) | solubility compared with SN38 ([1]; ratio pro-drug complex / SN38) | cytotoxicity [2, 4] | cytotoxicity on redox mediated activation (FIG. 8) ([2]; redox mediated activation) | cytotoxicity [3, 4] | cytotoxicity on redox-mediated activation (FIG. 9) ([3]; redox-mediated activation) |
| --- | --- | --- | --- | --- | --- | --- | --- |
|  | CCc1c2c(nc3ccc(OC(=O)N(C)CCN(C)C(=O)OCc4c5c(n(CC(=O)NCCOCCOCCOCCn6cc(CCC(=O)CCCC(=O)NCCCCC7NC(=O)[C@@H](Cc8ccc(O)cc8)NC(=O)[C@H](CC(=O)O)NC(=O)CNC(=O)[C@H](CCCNC(=N)N)NC7=O)nn6)c4C)C(=O)C=C(OC)C5=O)cc13)-c1cc3c(c(=O)n1C2)COC(=O)[C@]3(O)CC (stereo partly shown) [SN-38 pro-drug complex] | 100 µg/mL | >= 50 times | essentially non-cytotoxic | leads to KB cell cytotoxicity | essentially non-cytotoxic | leads to SKBR3 cell cytotoxicity |
| ~2 µg/mL (≈ 5.1 µM) | CCc1c2c(nc3ccc(O)cc13)-c1cc3c(c(=O)n1C2)COC(=O)[C@]3(O)CC [SN38, 7-Ethyl-10-hydroxy-camptothecin, reference compound] |  |  |  |  |  |  |
